The test system of one experiment is C. elegans. Kind of experiment: Worm respiration assay (Seahorse XF24). It counts as in vivo. Conditions: day 3 adult worms. On the procedure:
Worm Respiration Assays Oxygen consumption was measured using the Seahorse XF24 equipment (Seahorse Bioscience Inc., North Billerica, Mass.) as described in Yamamoto et al. Typically, 200 animals per conditions were recovered from NGM plates with M9 medium, washed three times in 2 mLM9 to eliminate residual bacteria, and resuspended in 500 μL M9 medium. Worms were transferred in 24-well standard Seahorse plates (#100777-004) (50 worms per well) and oxygen consumption was measured 6 times. Respiration rates were normalized to the number of worms in each individual well. NAD measurement by HPLC For NAD+ quantification, approximately 1000 worms were collected in M9 buffer, washed five times to remove residual bacteria and flash-frozen in liquid nitrogen and stored at −80° C. until analysis. Extraction was started by adding 250 μl of 1.6M perchloric acid on frozen samples, followed by extensive homogenization in a Qiagen tissuelyser, and centrifugation at 20.000 g for 15 min. The supernatant was recovered and neutralized with a 3M potassium carbonate solution. After centrifugation, 100 μl of supernatant was filtered and used for NAD measurement using an HPLC system (Agilent) with a Supelco LC-18-T column (Sigma), as described in Yoshino et al. (Yoshino, K. F. Mills, M. J. Yoon, S. Imai, Nicotinamide Mononucleotide, a Key NAD(+) Intermediate, Treats the Pathophysiology of Diet- and Age-Induced Diabetes in Mice. Cell Metab 14, 528 (2011)).

The subject of the next experiment is C57Bl/6J mice. Kind of experiment: Long-term NR supplementation of chow or high-fat diet fed mice. The class given is in vivo. On the procedure:
Animal Experiments. Male PARP-1^+/+ and PARP-1^−/− mice on a pure C57Bl/6J background (Menissier-de Murcia et al., 1997) were used. Mice were housed separately, had ad libitum access to water and standard rodent chow (10 kcal % of fat, Safe, Augy, France) or to a high calorie, high fat diet (60 kcal % of fat, Research. Diets, New Brunswick, N.J., USA), and were kept under a 12 h dark-light cycle. In other animal experiments, 8 weeks-old male C57Bl/6J mice were purchased from Charles River and powder chow (D12450B) and high fat (D12492) diets were from Research Diets Inc (New Brunswick, N.J., USA). 80 ml of water per kg of powder CD were used to make food pellets. 40 ml of water per kg of powder HFD were used to make food pellets. For NR, NMN and NA supplemented diets, the appropriate amount of these compounds was added to the water used to create the pellets, taking into account the differences in the daily intake of each diet. Mice were housed separately, had ad libitum access to water and food and were kept under a 12 h dark-light cycle. Mice were fed with homemade pellets from 10 weeks of age. To make the pellets, the powder food was mixed with water (vehicle) or with NR. All animal experiments were carried out according to local national and EU ethical guidelines. To monitor body weight, mice were weighed and the food consumption was measured each week on the same day. In case of PJ34 treatment, mice received each 12 h (at 7:00 and 19:00) 10 mg/kg PJ34 by intraperitoneal injection for 5 continuous days. In all studies animals were killed (at 14:00) either after CO2 inhalation or cervical dislocation after 6 h of fasting (starting at 8:00), and tissues were collected and processed as specified below. Oral glucose tolerance test, intraperitoneal insulin tolerance test, free fatty acid (FFA) and triglycerides were determined as described (Lagouge et al., 2006). Plasma insulin and was determined in heparinized plasma samples using specific ELISA kits (Mercodia). Blood samples were collected in heparinized tubes and plasma was isolated after centrifugation. Plasma parameters were measured using a Cobas c111 (Roche Diagnostics). Thermoadaptation was performed as described (Lagouge et al., 2006). We measured O2 consumption, CO2 production, and spontaneous locomotor activity in an open circuit indirect calorimetry system (Sabre systems, Las Vegas, Nev., USA) over 24-48 has described (Dali-Youcef et al., 2007; Lagouge et al., 2006; Watanabe et al., 2006). […] The respiratory quotient was the ratio of CO2 production over O2 consumption. During actimetry, beamline crossings were summarized each 15 minutes. […] Euglycemic-hyperinsulinemic clamps were performed in PARP-1^−/− and ^+/+ male mice (n=4 mice per genotype; age=4 months) exactly as previously described (Feige et al, 2008).
Instruments, total body fat was measured by echoMRI as described (Lagouge et al., 2006; Watanabe et al., 2006). Endurance test was performed as described in (Canto et al., 2009). Intraperitoneal glucose and insulin tolerance tests (IPGTT and IPITT, respectively) were performed as previously described (Feige et al, 2008). The animals were killed after 6 h of fasting by CO2 asphyxiation and tissues were collected. Total body fat content was then examined at autopsy, by weighing the subcutaneous, gonadal, mesenterial, retroperitoneal and BAT associated fat depots. Liver triglyceride was determined after Folch extraction using a commercial triglyceride kit (Roche). Pancreas and plasma insulin content was determined from acidic extracts using a commercial ELISA kit (Mercodia) (Champy et al., 2004).
Histology and Microscopy. Haematoxylin-eosin (HE), Oil Red-O and succinate-dehydrogenase (SDH) stainings were performed on […] tissue sections as described (Lagouge et al., 2006; Picard et al., 2002). Transmission electron microscopy (TEM) investigation was performed on glutaraldehyde-fixed, osmium tetroxyde stained ultrafine sections (Watanabe et al., 2006). […]

“Also recorded” adds a separate entry of the source.

As for `NC(=O)c1ccc[n+]([C@@H]2O[C@H](CO)[C@@H](O)[C@H]2O)c1` [NR, nicotinamide riboside], the “oxygen consumption (respiration)” value in the experiment with C. elegans is given as “increased respiration; also recorded: Oxygen consumption was increased”. For the same compound, in the experiment on C57Bl/6J mice (16 weeks, 6 hr fast), the fasting insulin levels result is recorded as “much lower”. Also, in the experiment on C57Bl/6J mice (CD and HFD), the “thermogenic capacity (body temperature during cold exposure)” value was “enhanced thermogenic capacity”. Moreover, in the experiment with C57Bl/6J mice (CD, NR 400 mg/kg/day), the “O2 consumption rates on CD” value is “marked tendency to display higher O2 consumption rates”; the “RER changes between feeding and fasting periods” value was “higher amplitude of the changes in RER”; the “body weight on chow diet” value is “no effect”. Also, in the experiment with C57Bl/6J mice (HFD), the HDL-cholesterol levels entry is reported as “unaffected”, the “HFD-induced increase in LDL cholesterol” value is “partially prevented the increase”, the “cristae of mitochondria in BAT (electron microscopy)” value is recorded as “more abundant cristae” and the “size of mitochondria in BAT (electron microscopy)” value is given as “not being significantly larger”. In the experiment with C57Bl/6J mice (HFD, 10 weeks), the “glucose tolerance (intraperitoneal glucose tolerance test)” value is given as “slight, albeit not significant, improvement in glucose tolerance” and the “insulin secretion during glucose tolerance test” value is given as “robust reduction in insulin secretion”. Also, the “endurance performance on HFD (treadmill)” value in the experiment with C57Bl/6J mice (HFD, 12 weeks) is given as “significantly accentuated”. Moreover, the “HFD-induced increase in total cholesterol” value in the experiment with C57Bl/6J mice (HFD, 16 weeks, 6 hr fast) is on record as “partially prevented the increase”. In addition, the “O2 consumption rates on HFD” value in the experiment on C57Bl/6J mice (HFD, NR 400 mg/kg/day) is “clearly significant”. Further, the “fat mass (Echo-MRI)” value with C57Bl/6J mice (HFD, NR 400 mg/kg/day, 8 weeks) is reported as “reduced fat mass”. In addition, the “HFD-induced body weight gain” value in the experiment on C57Bl/6J mice (HFD, NR 400 mg/kg/day, 12 weeks) was “significantly attenuated”. Also, in the experiment on C57Bl/6J mice (NR 400 mg/kg/day), the activity pattern result is “did not affect the activity pattern”; the “liver triglycerides, less than vehicle-fed” value amounted to 40%; the “weight of the epididymal depot” value is “significant lower weight of the epididymal depot”. Moreover, in the experiment on C57Bl/6J mice (NR 400 mg/kg/day, especially on HFD), the food intake entry is “tendency to eat more”. Moreover, the endurance performance entry in the experiment with C57Bl/6J mice (NR-fed vs vehicle fed) is “clear tendency to display a better endurance performance”. Besides, the “SDH staining of gastrocnemius muscle” value with C57Bl/6J mice (mouse, in vivo) is listed as “more intense SDH staining”.
